Measured values from ChEMBL document CHEMBL1649541, “Molecular basis and phenotype of methicillin resistance in Staphylococcus aureus and insights into new beta-lactams that meet the challenge” (Antimicrob Agents Chemother, 2009).
≈ marks a conversion by molar mass, not a printed value.

Columns and labels:
Staphylococcus aureus [1] = test: Antimicrobial activity against methicillin-resistant Staphylococcus aureus; type: functional
Staphylococcus aureus [2] = test: Bactericidal activity against methicillin-resistant Staphylococcus aureus; type: functional
Staphylococcus aureus [3] = test: Ratio of MBC to MIC for methicillin-resistant Staphylococcus aureus; type: functional
Staphylococcus aureus [4] = test: Antimicrobial activity against methicillin-resistant Staphylococcus aureus in mouse systemic infection model; type: functional
MecA [5] = molecular target: T1, MecA (Staphylococcus aureus, UniProt Q7DHH4); test: Inhibition of methicillin-resistant Staphylococcus aureus PBP 2a
T1 sequence (Q7DHH4 whole entry): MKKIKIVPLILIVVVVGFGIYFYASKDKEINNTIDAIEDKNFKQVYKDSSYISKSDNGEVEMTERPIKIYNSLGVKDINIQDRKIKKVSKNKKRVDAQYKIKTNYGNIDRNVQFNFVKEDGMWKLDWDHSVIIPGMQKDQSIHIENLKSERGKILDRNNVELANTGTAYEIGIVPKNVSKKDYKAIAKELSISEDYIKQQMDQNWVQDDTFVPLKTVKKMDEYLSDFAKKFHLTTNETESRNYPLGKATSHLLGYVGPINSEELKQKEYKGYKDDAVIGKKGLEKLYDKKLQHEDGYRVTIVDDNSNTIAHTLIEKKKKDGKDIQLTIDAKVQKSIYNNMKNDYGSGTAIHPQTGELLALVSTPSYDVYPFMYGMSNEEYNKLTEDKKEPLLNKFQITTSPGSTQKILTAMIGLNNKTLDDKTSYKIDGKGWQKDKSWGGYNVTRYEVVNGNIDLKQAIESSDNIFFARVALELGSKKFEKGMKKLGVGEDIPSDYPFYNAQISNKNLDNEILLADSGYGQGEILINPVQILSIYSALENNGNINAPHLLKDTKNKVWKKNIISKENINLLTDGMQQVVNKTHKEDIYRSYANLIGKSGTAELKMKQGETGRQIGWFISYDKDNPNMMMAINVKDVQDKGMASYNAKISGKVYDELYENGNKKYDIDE

Staphylococcus aureus [6] = test: Antimicrobial activity against methicillin-resistant Staphylococcus aureus ATCC 29213 by CLSI method; type: functional
[7] = molecular target: T2, Penicillin-binding protein 1 (Staphylococcus aureus, UniProt Q53725); test: Binding affinity to methicillin-susceptible Staphylococcus aureus PBP 1
T2 sequence (Q53725 whole entry): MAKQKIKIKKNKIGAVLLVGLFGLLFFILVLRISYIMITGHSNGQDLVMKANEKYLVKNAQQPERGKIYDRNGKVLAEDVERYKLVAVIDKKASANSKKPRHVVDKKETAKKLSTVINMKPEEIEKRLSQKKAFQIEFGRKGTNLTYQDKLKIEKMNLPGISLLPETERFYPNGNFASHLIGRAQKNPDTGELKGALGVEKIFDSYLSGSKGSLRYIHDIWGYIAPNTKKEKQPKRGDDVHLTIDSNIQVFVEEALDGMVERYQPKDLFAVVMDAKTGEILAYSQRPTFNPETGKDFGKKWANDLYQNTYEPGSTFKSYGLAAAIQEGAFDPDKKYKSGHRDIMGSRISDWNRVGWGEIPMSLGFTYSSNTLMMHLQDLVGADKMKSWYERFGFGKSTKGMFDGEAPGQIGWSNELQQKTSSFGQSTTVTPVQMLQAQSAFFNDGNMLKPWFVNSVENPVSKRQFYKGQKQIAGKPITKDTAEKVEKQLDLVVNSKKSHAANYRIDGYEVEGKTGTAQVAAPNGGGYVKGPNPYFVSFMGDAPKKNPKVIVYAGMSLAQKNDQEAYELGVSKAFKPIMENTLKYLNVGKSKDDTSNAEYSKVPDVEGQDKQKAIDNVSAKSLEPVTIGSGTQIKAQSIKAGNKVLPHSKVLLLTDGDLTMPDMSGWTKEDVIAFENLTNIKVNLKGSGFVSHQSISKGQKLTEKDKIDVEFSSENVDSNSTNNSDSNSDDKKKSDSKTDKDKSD

[8] = molecular target: T3, Penicillin-binding protein 2 (Staphylococcus aureus, UniProt Q53729); test: Binding affinity to methicillin-susceptible Staphylococcus aureus PBP 2
T3 sequence (Q53729 whole entry): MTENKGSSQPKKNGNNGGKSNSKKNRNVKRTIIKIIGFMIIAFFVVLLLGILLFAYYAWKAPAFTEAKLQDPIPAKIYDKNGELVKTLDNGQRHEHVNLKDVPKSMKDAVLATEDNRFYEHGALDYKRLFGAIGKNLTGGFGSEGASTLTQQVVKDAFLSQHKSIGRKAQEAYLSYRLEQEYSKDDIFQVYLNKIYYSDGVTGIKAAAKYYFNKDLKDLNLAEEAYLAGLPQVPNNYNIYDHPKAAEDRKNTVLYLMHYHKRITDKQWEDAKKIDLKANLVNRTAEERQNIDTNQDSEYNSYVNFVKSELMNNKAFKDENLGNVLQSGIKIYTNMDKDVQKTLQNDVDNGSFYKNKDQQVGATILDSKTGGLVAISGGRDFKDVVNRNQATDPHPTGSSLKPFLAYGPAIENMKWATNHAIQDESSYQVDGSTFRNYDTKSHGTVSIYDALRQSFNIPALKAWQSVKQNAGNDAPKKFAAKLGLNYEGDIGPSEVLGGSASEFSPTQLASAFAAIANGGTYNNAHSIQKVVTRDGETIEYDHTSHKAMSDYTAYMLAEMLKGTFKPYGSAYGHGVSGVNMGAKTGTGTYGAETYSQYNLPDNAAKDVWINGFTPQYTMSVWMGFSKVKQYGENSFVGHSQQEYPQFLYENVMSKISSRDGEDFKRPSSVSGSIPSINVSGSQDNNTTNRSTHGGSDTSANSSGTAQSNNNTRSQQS

[9] = molecular target: T4, Penicillin-binding protein 2b (Staphylococcus aureus, UniProt Q9XDB3); test: Binding affinity to methicillin-susceptible Staphylococcus aureus PBP 3
T4 sequence (Q9XDB3 whole entry): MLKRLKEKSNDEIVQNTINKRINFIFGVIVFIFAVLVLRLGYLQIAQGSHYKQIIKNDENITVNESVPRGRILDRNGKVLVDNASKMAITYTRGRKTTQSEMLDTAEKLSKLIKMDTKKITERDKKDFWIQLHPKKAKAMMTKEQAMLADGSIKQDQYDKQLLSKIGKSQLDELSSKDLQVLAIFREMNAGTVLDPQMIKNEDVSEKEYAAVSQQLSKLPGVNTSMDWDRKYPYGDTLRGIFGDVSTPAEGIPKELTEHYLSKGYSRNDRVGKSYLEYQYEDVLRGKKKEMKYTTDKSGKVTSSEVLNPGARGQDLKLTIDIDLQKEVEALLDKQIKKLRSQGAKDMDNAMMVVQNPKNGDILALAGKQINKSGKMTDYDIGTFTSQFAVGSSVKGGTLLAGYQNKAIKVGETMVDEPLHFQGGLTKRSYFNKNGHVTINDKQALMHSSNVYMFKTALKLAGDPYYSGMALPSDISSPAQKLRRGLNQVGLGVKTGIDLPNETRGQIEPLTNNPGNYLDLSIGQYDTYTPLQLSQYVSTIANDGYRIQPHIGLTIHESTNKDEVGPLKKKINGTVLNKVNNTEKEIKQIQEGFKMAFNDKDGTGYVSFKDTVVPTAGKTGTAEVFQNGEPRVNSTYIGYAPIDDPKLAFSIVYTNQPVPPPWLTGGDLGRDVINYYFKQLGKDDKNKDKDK

[10] = molecular target: T5, Penicillin-binding protein 4 (Staphylococcus aureus, UniProt P72355); test: Binding affinity to methicillin-susceptible Staphylococcus aureus PBP 4
T5 sequence (P72355 whole entry): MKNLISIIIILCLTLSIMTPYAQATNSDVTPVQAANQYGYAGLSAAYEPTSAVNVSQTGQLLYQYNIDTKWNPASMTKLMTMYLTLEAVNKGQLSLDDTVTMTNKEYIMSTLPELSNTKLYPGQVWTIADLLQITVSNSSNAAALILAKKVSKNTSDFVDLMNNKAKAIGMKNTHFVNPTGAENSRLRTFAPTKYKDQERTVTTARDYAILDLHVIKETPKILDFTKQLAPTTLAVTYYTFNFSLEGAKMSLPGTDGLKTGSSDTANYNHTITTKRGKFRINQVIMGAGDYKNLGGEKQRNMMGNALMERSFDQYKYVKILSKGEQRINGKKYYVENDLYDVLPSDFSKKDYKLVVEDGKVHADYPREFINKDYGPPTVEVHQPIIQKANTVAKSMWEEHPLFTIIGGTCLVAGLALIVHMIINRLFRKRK

Staphylococcus aureus [11] = test: Antimicrobial activity against vancomycin-intermediate Staphylococcus aureus; type: functional
Staphylococcus aureus [12] = test: Antimicrobial activity against vancomycin-resistant Staphylococcus aureus; type: functional
Staphylococcus aureus [13] = test: Antimicrobial activity against daptomycin-nonsusceptible Staphylococcus aureus; type: functional
Staphylococcus aureus [14] = test: Antimicrobial activity against community-acquired Staphylococcus aureus; type: functional
Staphylococcus aureus [15] = test: Antimicrobial activity against methicillin-susceptible Staphylococcus aureus ATCC 29213 by M7-A7 dilution method; type: functional
MecA [16] = molecular target: T1, MecA; test: Binding affinity to methicillin-resistant Staphylococcus aureus MF535HR PBP 2a by competitive binding assay
[17] = molecular target: T2, Penicillin-binding protein 1; test: Inhibition of methicillin-susceptible Staphylococcus aureus ATCC 29213 PBP 1
[18] = molecular target: T3, Penicillin-binding protein 2; test: Inhibition of methicillin-susceptible Staphylococcus aureus ATCC 29213 PBP 2
[19] = molecular target: T4, Penicillin-binding protein 2b; test: Inhibition of methicillin-susceptible Staphylococcus aureus ATCC 29213 PBP 3
[20] = molecular target: T5, Penicillin-binding protein 4; test: Inhibition of methicillin-susceptible Staphylococcus aureus ATCC 29213 PBP 4
MecA [21] = molecular target: T1, MecA; test: Inhibition of methicillin-resistant Staphylococcus aureus OC 3726 PBP 2a
Staphylococcus aureus [22] = test: Antimicrobial activity against methicillin-resistant Staphylococcus aureus infected in patient with complicated skin and skin structure infection assessed as cure rate at 500 mg/kg, iv administered every 12 hrs; type: functional
Staphylococcus aureus [23] = test: Antimicrobial activity against methicillin-resistant Staphylococcus aureus infected in patient with complicated skin and skin structure infection assessed as cure rate at 1 g/kg, iv administered every 12 hrs; type: functional

Work on `C[C@H]1C=C(c2csc(SC3=C(C(=O)O)N4C(=O)[C@H]([C@@H](C)O)[C@H]4[C@H]3C)n2)CN1` [RAZUPENEM] yielded an MIC90 (Staphylococcus aureus [1]) of 2 µg/mL (≈ 4.91 µM), an MBC (Staphylococcus aureus [2]) of 0.5 µg/mL (≈ 1.23 µM) and a Ratio (Staphylococcus aureus [3]) of 1. The ED50 (Staphylococcus aureus [4]) was 4.7 mg/kg.

For `CCO/N=C(\C(=O)N[C@@H]1C(=O)N2C(C(=O)[O-])=C(Sc3nc(-c4cc[n+](C)cc4)cs3)CS[C@H]12)c1nsc(NP(=O)(O)O)n1` [CEFTAROLINE FOSAMIL], the IC50 (MecA [5]) was 234 nM, the MIC (Staphylococcus aureus [6]) was 0.25 µg/mL (≈ 0.365 µM) and the IC50 [7] was 146 nM. For the same compound, the IC50 [8] was 49.7 nM, the IC50 [9] was 71.6 nM and the IC50 [10] was greater than 1460 nM. It also gave an MIC90 (Staphylococcus aureus [11]) of 1 µg/mL (≈ 1.46 µM), an MIC (Staphylococcus aureus [12]) of 0.12 µg/mL (≈ 0.175 µM) and an MIC (Staphylococcus aureus [13]) of 0.5 µg/mL (≈ 0.73 µM). For the same compound, the MIC90 (Staphylococcus aureus [14]) was 1 µg/mL (≈ 1.46 µM).

With `CO/N=C(\C(=O)N[C@@H]1C(=O)N2C(C(=O)O)=C(CSc3nc(=O)c(O)nn3C)CS[C@H]12)c1csc(N)n1` [CEFTRIAXONE] the MIC (Staphylococcus aureus [15]) was greater than 64 µg/mL.

`CC(=O)NC[C@H]1CN(c2ccc(N3CCOCC3)c(F)c2)C(=O)O1` [LINEZOLID] showed an ED50 (Staphylococcus aureus [4]) of 7.4 mg/kg.

With `C[C@@H](O)[C@H]1C(=O)N2C(C(=O)[O-])=C(c3cn4cnc(C(=O)c5ccc[n+](CC(N)=O)c5)c4s3)[C@H](C)[C@H]12` the IC50 (MecA [16]) was 262 nM.

Compound `Cc1oc(=O)oc1COC(=O)N1CC[C@@H](N2CC/C(=C\C3=C(C(=O)O)N4C(=O)[C@@H](NC(=O)/C(=N/O)c5nsc(N)n5)[C@H]4SC3)C2=O)C1` [CEFTOBIPROLE MEDOCARIL FREE ACID] has an IC50 [17] of 145 nM, an IC50 [18] of 724 nM and an IC50 [19] of 72.4 nM. It also gave an IC50 [20] of 1450 nM, an IC50 (MecA [21]) of 1300 nM and an MIC (Staphylococcus aureus [15]) of 2 µg/mL (≈ 2.9 µM). For the same compound, the Activity (Staphylococcus aureus [22]) was 92% and the Activity (Staphylococcus aureus [23]) was 90%.

`CC(C)(O/N=C(\C(=O)N[C@@H]1C(=O)N2C(C(=O)[O-])=C(C[n+]3ccccc3)CS[C@H]12)c1csc(N)n1)C(=O)O` [CEFTAZIDIME] gave an MIC (Staphylococcus aureus [15]) greater than 128 µg/mL.

`CN[C@H](CC(C)C)C(=O)N[C@H]1C(=O)N[C@@H](CC(N)=O)C(=O)N[C@H]2C(=O)N[C@H]3C(=O)N[C@H](C(=O)N[C@H](C(=O)O)c4cc(O)cc(O)c4-c4cc3ccc4O)[C@H](O)c3ccc(c(Cl)c3)Oc3cc2cc(c3O[C@@H]2O[C@H](CO)[C@@H](O)[C@H](O)[C@H]2O[C@H]2C[C@](C)(N)[C@H](O)[C@H](C)O2)Oc2ccc(cc2Cl)[C@H]1O` [VANCOMYCIN] gave an ED50 (Staphylococcus aureus [4]) of 6 mg/kg.
